Results: PMC7162859 (Scientific Reports, 2020)
Read-outs that look alike come from different tables or passages of the source.

Assays:
TP53(-/-) GBM cells = assay: In vitro cytotoxicity assay (CellTiter-Glo, 72 hours); format: cell-based, murine; conditions: for EC50: Mus musculus, 72 h, 72 hours, read-out: Ispinesib EC50
Experimental: (§1) TP53(−/−) and PTEN(−/−) cells were seeded into 96-well plates (pre-coated with fibronectin) at a density of 5,000 cells per well in DMEM media with 0.5% FBS, 1% nitrogen supplement, 10 ng/ml of FGF and 10 ng/ml of PDGFAA. Human GBM1A cells were seeded into 96 well plates (pre-coated with laminin) in DMEM media with 1% neuroPlex supplement, 20 ng/ml of EGF and 20 ng/ml of […]. After 24 hours (~70% confluency), cells were exposed to ispinesib (n = 10 wells per concentration) from 0.025–1000 nM with or without 500 nM elacridar co-treatment. The plates were incubated for 72 hours, cell viability measured using CellTiter-Glo ATP-based assay, and read on a luminometer. The dose-response data were fit to the Hill equation.
(§2) In vitro potency data was fitted to “log(inhibitor) vs. normalized response - variable slope” equation in GraphPad Prism version 6.04 (GraphPad, La Jolla, CA) to determine half-maximal effective concentration (EC50).

PTEN(-/-) GBM cells = assay: as above; format: cell-based, murine; conditions: for EC50: Mus musculus, 72 h, 72 hours, read-out: Ispinesib EC50
Experimental: as §1, §2

[1] = FVB wild-type; for Fold increase in Kp: 10 mg/kg i.p. ispinesib with or without 10 mg/kg i.p. elacridar; for increase of brain-to-plasma concentration ratio / brain delivery of ispinesib with elacridar co-administration: 10 mg/kg ip ispinesib + 10 mg/kg elacridar vs ispinesib alone, 2 and 6 hours, 10 mg/kg
Experimental: (§3) Blood and brain specimens were harvested at 2 and 6 hours post-dose.
(§4) All dosing solutions were prepared on the day of the study. A serial sacrifice (destructive sampling) design was employed for sample collection. In all the pharmacokinetic studies conducted in non-tumor bearing FVB mice, the group size was 4 at each sampling time point (n = 4). At pre-determined time points, mice were euthanized using a carbon dioxide chamber. Blood was collected by cardiac puncture and transferred to sample tubes coated with heparin. The whole brain was isolated from skull and rinsed with ice-cold distilled water, and superficial meninges were removed by blotting with tissue paper. Plasma was separated by centrifugation of blood samples at 3500 rpm and 4°C for 15 minutes. […] All the samples were stored at -80°C, until further analysis. The concentrations of ispinesib in all the samples were analyzed by LC-MS/MS. Assuming a vascular volume of 1.4% in mouse brain ^5, the concentrations in brain were corrected for residual drug in brain vasculature.
Kp=CbrainCplasma (Equation 4)

in vivo [2] = conditions: Sprague-Dawley, rat, ip, 10 mg/kg
Experimental: Blood and brain (tumor-bearing) samples were collected at 2 hours post-dose, and whole brains were immediately flash frozen.
A fluorescence-guided punch biopsy technique (Supplementary Fig. S2) was developed and employed for isolation of tumor core, tumor rim (brain adjacent to tumor, BAT) and normal (non-tumor) brain regions from brain samples. Briefly, an acrylic adult rat brain matrix (WPI) was used to obtain thick coronal brain sections (1–2 mm thick) through the Td-Tomato labelled tumors. The tumor regions were identified by relative fluorescence signal (Nikon AZ100M microscope), and biospy punches with varying diameters were utilized to isolate tumor core (tumor region with fluorescence signal 5-fold or higher relative to background signal) and rim (region adjacent to tumor core with fluorescence signal 3 to 5-fold higher relative to background) (Supplementary Fig. S3). The samples from individual brains were pooled together for analysis of ispinesib concentrations by LC-MS/MS.
The tumor-bearing brain samples were harvested at 2 hours post dose (n = 9). Coronal sections that were 1-2 mm thick were obtained using an acrylic brain matrix, and a fluorescence microscopy guided punch biopsy method was utilized for the isolation of tumor core, tumor rim (brain adjacent to tumor, BAT) and normal (non-tumor) brain regions. The tumor core was identified as the tumor region with a fluorescence signal that was 5-fold or higher relative to the background signal. The tumor rim was defined as the region around the tumor core with a fluorescence signal 3 to 5-fold higher relative to the background signal. The brain tissue with a fluorescence signal similar to or lower than the background fluorescence was collected as the normal brain. The samples collected from each brain were pooled together, and ispinesib concentrations were determined using LC-MS/MS.

orthotopic GBM1A tumors [3] = assay: Pharmacodynamics: monopolar spindle formation in orthotopic GBM1A tumors; format: in vivo, NSG mice; conditions: single ip dose 10 mg/kg each drug; 8 hours
Experimental: Female NSG mice were intracerebrally injected with 500,000 GBM1A cells at coordinates X = 1.5 mm, Y = 1.5 mm and Z = 2.5 mm relative to the bregma, and tumor growth was monitored by bioluminescence imaging. After 4 weeks (tumor size of about 2 × 10^9 photons/sec), animals were randomized to receive single ip dose of microemulsion vehicle, 10 mg/kg elacridar, 10 mg/kg ispinesib, or a combination of 10 mg/kg ispinesib and 10 mg/kg elacridar (n = 8–10). At 8 hours following treatment, mice were perfused and whole brains were isolated. The samples were processed for immunofluorescence by staining for tubulin with an alpha-tubulin antibody (Cell signaling, Cat#2125) and counter staining with DAPI for visualizing nuclei. Images were scanned and counted for cells with monopolar spindles.

[4] = Rapid equilibrium dialysis for unbound fractions in mouse plasma and brain homogenate; format: in vitro ADME; conditions: FVB, 37 °C
Experimental: Rapid equilibrium dialysis was used to determine unbound fractions with modifications[48],[49] to manufacturer’s protocol (Thermo Fisher Scientific). Mouse plasma and brain homogenates (in 3 volumes of PBS, w/v) were spiked with 0.1 mg/mL ispinesib to obtain final concentrations of 1 µM. 300 µL of drug-spiked matrices were placed in donor chamber, and 500 µL of PBS was placed in receiver chamber of inserts (8 kDa MWCO), in triplicates. The base plate with inserts was incubated on Bioshaker at 37 °C and 1000 rpm for 4 hours. Ispinesib concentrations in samples were analyzed by liquid-chromatography tandem mass-spectrometry (LC-MS/MS).
The unbound fractions of ispinesib in plasma and brain were determined by using rapid equilibrium dialysis (RED) technique, with some alterations ^1,2 to manufacturer’s protocol (Thermo Fisher Scientific). […] RED experiments were initially conducted at 1, 2, 5 and 10 µM concentrations of ispinesib with 4 and 6 hour time points. […] Consequently, unbound fractions at 1 µM concentration and 4 hr time point were utilized for estimation of Kp,uu and free concentrations of ispinesib. […] The samples collected from the donor and receiver chambers after dialysis for 4 hours were stored at -80°C and analyzed for ispinesib concentrations by LC-MS/MS analysis. […]

in vivo [5] = conditions: FVB, mouse, 10 mg/kg; for concentration at 2 h / concentration at 6 h: intraperitoneal
Experimental: as §3, §4
Kp=CbrainCplasma (Equation 4)

GBM1A cells = assay: In vitro cytotoxicity assay (CellTiter-Glo, 72 hours); format: cell-based, human; conditions: for EC50: Homo sapiens, 72 h, 72 hours, read-out: Ispinesib EC50
Experimental: as §1, §2

orthotopic GBM1A tumors [6] = format: in vivo; conditions: 10 mg/kg ip each drug once every 4 days for 28 days
Experimental: Female NSG mice were intracranially implanted with 500,000 luciferase expressing GBM1A cells (transduced with lentiviral particles expressing GFP-Luciferase). After 7 days, animals were randomized into four groups and ip administered with microemulsion vehicle, 10 mg/kg elacridar, 10 mg/kg ispinesib, or a combination of 10 mg/kg ispinesib and 10 mg/kg elacridar, once every 4 days for 28 days (n = 10). The dosing schedule of once every 4 days was based on our previously publication with ispinesib. Tumor growth was monitored by bioluminescence imaging and animals were followed for survival.
The progression of tumor growth was monitored by bioluminescence imaging (BLI) using an IVIS system. Mice that underwent stereotactic injection with GFP-luciferase expressing GBM1A cells were imaged twice a week. Ten minutes prior to imaging, mice were intraperitoneally injected with d-luciferin at 75 mg/kg body weight (3 mL/kg injection volume). Animals were immobilized using 1.5% − 3.0% isoflurane provided by nose cones within the imager and were kept warm using a heated stage set at 37 °C during the imaging procedure. Following imaging for about 5 minutes, animals were removed from the IVIS chamber and monitored until they fully recovered from anesthesia.

[7] = 5 mg/kg iv bolus, Mdr1a/b-/- Bcrp1-/- mice

Cc1ccc(C(=O)N(CCCN)[C@@H](c2nc3cc(Cl)ccc3c(=O)n2Cc2ccccc2)C(C)C)cc1 [Ispinesib, N-(3-aminopropyl)-N-[(1 R)-1-(3-benzyl-7-chloro-4-oxoquinazolin-2-yl)-2-methylpropyl]-4-methylbenzamide]
EC50 (TP53(-/-) GBM cells; [Elacridar] 0 nM): 14.4 ± 1.2 nM
EC50 (TP53(-/-) GBM cells; [Elacridar] 500 nM): 3.9 ± 0.5 nM
Hill Coefficient (TP53(-/-) GBM cells; [Elacridar] 0 nM): 0.6 ± 0.02
Hill Coefficient (TP53(-/-) GBM cells; [Elacridar] 500 nM): 0.4 ± 0.01
EC50 (PTEN(-/-) GBM cells; [Elacridar] 0 nM): 10 ± 0.9 nM
EC50 (PTEN(-/-) GBM cells; [Elacridar] 500 nM): 3.3 ± 0.4 nM
Hill Coefficient (PTEN(-/-) GBM cells; [Elacridar] 0 nM): 0.6 ± 0.02
Hill Coefficient (PTEN(-/-) GBM cells; [Elacridar] 500 nM): 0.4 ± 0.01
Fold increase in Kp ([1]; 2 hrs): 1
Fold increase in Kp ([1]; 6 hrs): 1
increase of brain-to-plasma concentration ratio / brain delivery of ispinesib with elacridar co-administration [1]: approximately 10 fold
increase of brain-to-plasma concentration ratio / brain delivery of ispinesib with elacridar co-administration ([1]; listed as ispinesb): 10 fold
Kp at 2 h (in vivo [2]; normal brain): 0.11 ± 0.09
concentration at 2 h (in vivo [2]; normal brain): 60 ± 40 ng/mL
Kp at 2 h (in vivo [2]; tumor core): 0.77 ± 0.55
concentration at 2 h (in vivo [2]; tumor core): 380 ± 240 ng/mL
Kp at 2 h (in vivo [2]; tumor rim): 0.27 ± 0.18
concentration at 2 h (in vivo [2]; tumor rim): 150 ± 110 ng/mL
predicted unbound concentrations in the brain compared with in vitro EC50 against GBM1A (5 mg/kg intravenous, FVB wild-type mice, from in vivo concentrations and fu): appreciably below the EC50
Kp, brain-to-plasma AUC ratio (total drug) [7]: 12.12
Kp,uu, unbound partition coefficient [7]: 1.01
Kp, brain-to-plasma AUC ratio (total drug) (5 mg/kg iv bolus, wild-type mice): 0.23
monopolar spindles in tumor core (tubulin/DNA staining) (orthotopic GBM1A tumors [3]): occasional monopoles
fraction unbound at 4 h, 1 µM ([4]; mouse brain homogenate, corrected for dilution, read-out: percentage of unbound drug in brain): 0.0005 ± 0.0002
fraction unbound at 4 h, 1 µM ([4]; mouse plasma, read-out: percentage of unbound drug in plasma): 0.006 ± 0.001
Kp at 2 h (in vivo [5]; brain and plasma, ip): 0.1 ± 0.08
Kp at 6 h (in vivo [5]; brain and plasma, ip): 0.38 ± 0.14
concentration at 2 h (in vivo [5]; brain): 80 ± 20 ng/mL
concentration at 6 h (in vivo [5]; brain): 270 ± 90 ng/mL
concentration at 2 h (in vivo [5]; plasma): 1110 ± 570 ng/mL
concentration at 6 h (in vivo [5]; plasma): 730 ± 110 ng/mL
EC50 (GBM1A cells; [Elacridar] 0 nM): 1.4 ± 0.2 nM
EC50 (GBM1A cells; [Elacridar] 500 nM): 0.5 ± 0.04 nM
Hill Coefficient (GBM1A cells; [Elacridar] 0 nM): 1.8 ± 0.3
Hill Coefficient (GBM1A cells; [Elacridar] 500 nM): 1.7 ± 0.2
tumor doubling time (bioluminescence, single exponential fit) (orthotopic GBM1A tumors [6]; days 7–37): 9.4 days
median survival (orthotopic GBM1A tumors [6]; vehicle 61 days): 74 days
